Experiments:
Format in all cases: cell-based
[1] = system: HeLa cells; experiment: subG1 (hypodiploid) fraction by flow cytometry, HeLa cells
Method: (§1) Trypsinized cells were resuspended in PBS at 10^6 cells/ml. Cells were then fixed by addition of ice-cold 70% ethanol. Ethanol-fixed cells were kept overnight at 4° C. before staining. Cells were pelleted and washed twice with PBS. Cell pellets were incubated for an hour at room temperature with mouse anti-MPM-2 antibody (Millipore, Mass., USA), followed by 1 h incubation with Alexa-488 anti-mouse secondary antibody (Life Technologies, NY, USA). Finally cells were washed, pelleted and resuspended in propidium iodide-containing isotonic buffer (0.1 mg/mL) and 0.5% Triton X-100. Cell cycle distribution was determined by flow cytometry using an LSR Fortessa Flow cytometer (BD Biosciences, CA, USA) and analyzed using Flowjo software (Tree Star, OR, USA). […] The duration, highest degree, and rapidity of onset of MA varied between drugs, drug concentrations, and cell lines (FIGS. 2A, 2B). In general, the maximum MA achieved was less pronounced in Nos- and PJ-treated cells (FIGS. 2A, 2B). Drug-induced onset of MA was corroborated by substantial increases in cyclin B1 levels in all cell lines (FIG. 2C). […] Instances where the subG1 fraction was elevated without cleaved caspase-3 may either represent caspase-independent cell death or the presence of hypodiploid cells whose fate is unclear.

[2] = system: adult human dermal fibroblasts (HDF); experiment: subG1 (hypodiploid) fraction by flow cytometry, HDFs
[3] = system: MCF10A cells; experiment: Centrosome amplification (CA) by microscopy, MCF10A cells; settings: for change of CA over control levels (in words): interphase and mitotic cells, over 24 h
Method: (§2) Consequently, CA was assessed in cultures treated with different concentrations of declustering drugs for 6, 12, 18, or 24 h and untreated controls via microscopy. Centrosomes were identified by γ-tubulin and centrin-2 colocalization at discrete foci. […] The peak percent CA detected over 24 h is shown in FIG. 6 (only statistically significant (P<0.05) increases over control values are represented in the Figures). Representative confocal micrographs of CA in interphase and mitotic cells, both control and drug treated, are depicted in FIG. 7. No significant correlations between the degree of CA (FIG. 5A) and the expression levels of PLK4, Cyclin E, and Aurora A were found (FIG. 4).
(§3) To determine whether the CA-inducing activity of declustering drugs is restricted to cancer cells, two non-malignant cell lines, mammary fibrocystic (MCF10A) cells and adult human dermal fibroblasts were treated with these drugs. Neither one of RBN, GF or PJ induced CA or cell death (Table 8) in these cell lines. […] In comparison, 10 and 25 μM RBN increased peak CA over controls in interphase cells (p<0.001 and p=0.001, respectively), with the lower concentration dramatically augmenting peak CA to 56% of cells versus 15% for the higher dose (FIG. 9B). Only 10 but not 25 μM RBN increased the extent of CA in mitotic cells, and this upregulation was only slight (10%, p=0.041).

[4] = system: human dermal fibroblasts (HDFs); experiment: Centrosome amplification (CA) by microscopy, HDFs; settings: for change of CA over controls (in words): any concentration or time point assessed
Method: as §2, §3

[5] = system: PC3 cells; experiment: subG1 (hypodiploid) fraction by flow cytometry, PC3 cells
Method: as §1

[6] = system: mammary fibrocystic (MCF10A) cells; experiment: subG1 (hypodiploid) fraction by flow cytometry, MCF10A cells; settings: for change of peak subG1 percent compared to controls (in words): MCF10A cells; for Peak subG1 percent over 48 h: MCF10A
[7] = system: MDA-MB-231 (231) cells; experiment: subG1 (hypodiploid) fraction by flow cytometry, 231 cells
Method: as §1

[8] = system: 231 cells; experiment: Mitotic arrest (MA) by flow cytometry, 231 cells; settings: 10 μM
Method: FIGS. 2A-2C depict mitotic arrest (MA) phenotypes observed upon treatment with putative centrosome declustering drugs. […] Declustering drugs included Nos, BN, RBN, PJ, and GF, all at 10 and 25 μM except GF, which was used at 25 and 50 μM, and cell lines included 231, PC3, and HeLa. […] In general, MA increased from 0 h to a peak near 24 h, followed by a decline in MA that coincided with increases in subG1 fractions. Results are representative of three independent experiments. […] Drugs are ranked in order of increasing peak subG1 from bottom to top along the y axis. […] Increased levels of both cyclins compared with controls (0 h) were detected across cell lines with variable expression patterns depending on the drug and cell line. To evaluate apoptosis, cleaved caspase-3 (C. Caspase-3) was immunoblotted and eventual increases over controls were universally detected, typically by 24 h.
To evaluate the impact of putative declustering drugs on cell cycle progression and hypodiploidy (<2N DNA content, which may indicate apoptotic cells), MDA-MB-231 (231), PC3, and HeLa cells were treated with different concentrations of declustering drugs, stained with propidium iodide, labeled with anti-MPM2 antibody, and then assessed by flow cytometry at multiple time points over 48 h. […]

[9] = system: HDFs and MCF10A cells; experiment: Spindle multipolarity (MP) in non-malignant cell lines
[10] = system: 231 cells; experiment: Centrosome amplification (CA) by microscopy, 231 cells; settings: 25 μM
Method: (§4) Consequently, CA was assessed in cultures treated with different concentrations of declustering drugs for 6, 12, 18, or 24 h and untreated controls via microscopy. […] The peak percent CA detected over 24 h is shown in FIG. 6 (only statistically significant (P<0.05) increases over control values are represented in the Figures). Representative confocal micrographs of CA in interphase and mitotic cells, both control and drug treated, are depicted in FIG. 7. […] To better understand the “potency” of drug-induced CA with time, the average fold change in CA over controls over 24 h was assessed (FIG. 5A), whereby the extent of CA across time points (i.e., 6, 12, 18, and 24 h) was averaged and then divided by the extent of CA in control (i.e., 0 h). […] For Nos and BN, there was no major difference in CA levels in interphase versus mitotic cells.

[11] = system: MDA-MB-231 (231), PC3, and HeLa cells; experiment: Mitotic arrest (MA) by flow cytometry (MPM2/PI), across cell lines; settings: coarse-grained categories
Method: Trypsinized cells were resuspended in PBS at 10^6 cells/ml. Cells were then fixed by addition of ice-cold 70% ethanol. Ethanol-fixed cells were kept overnight at 4° C. before staining. Cells were pelleted and washed twice with PBS. Cell pellets were incubated for an hour at room temperature with mouse anti-MPM-2 antibody (Millipore, Mass., USA), followed by 1 h incubation with Alexa-488 anti-mouse secondary antibody (Life Technologies, NY, USA). Finally cells were washed, pelleted and resuspended in propidium iodide-containing isotonic buffer (0.1 mg/mL) and 0.5% Triton X-100. Cell cycle distribution was determined by flow cytometry using an LSR Fortessa Flow cytometer (BD Biosciences, CA, USA) and analyzed using Flowjo software (Tree Star, OR, USA).
To evaluate the impact of putative declustering drugs on cell cycle progression and hypodiploidy (<2N DNA content, which may indicate apoptotic cells), MDA-MB-231 (231), PC3, and HeLa cells were treated with different concentrations of declustering drugs, stained with propidium iodide, labeled with anti-MPM2 antibody, and then assessed by flow cytometry at multiple time points over 48 h. […] The duration, highest degree, and rapidity of onset of MA varied between drugs, drug concentrations, and cell lines (FIGS. 2A, 2B). In general, the maximum MA achieved was less pronounced in Nos- and PJ-treated cells (FIGS. 2A, 2B). […]

[12] = system: HeLa cells; experiment: Centrosome amplification (CA) by microscopy, HeLa cells; settings: interphase, 25 μM
Method: as §4

`COc1ccc2c(c1OC)C(=O)O[C@@H]2[C@H]1c2c(c(Br)c3c(c2OC)OCO3)CCN1C` [BN, 9-bromonoscapine] was tested, and the “Peak subG1 percent over 48 h” value ([1]; 10 μM) was 42.0%, the “Peak subG1 percent over 48 h” value ([1]; 25 μM) was 54.9% and the “maximum subG1 fraction relative to control” value ([1]; 25 μM) was 4.4 × control. The “Peak subG1 percent over 48 h” value ([2]; 10 μM) was 16.5%, the “Peak subG1 percent over 48 h” value ([2]; 25 μM) was 20.4% and the “change of CA over control levels (in words)” value [3] was “neither concentrations of Nos or BN significantly increased CA over control levels”. For the same compound, the “change of CA over controls (in words)” value [4] was “did not significantly increase the extent of CA over controls”, the “Peak subG1 percent over 48 h” value ([5]; 10 μM) was 46.0% and the “Peak subG1 percent over 48 h” value ([5]; 25 μM) was 42.8%. For the same compound, the “maximum subG1 fraction relative to control” value ([5]; 25 μM) was 9.2 × control, the “change of peak subG1 percent compared to controls (in words)” value (“change of peak subG1 percent” for short) [6] was “did not cause a significant increase in peak subG1 percent compared to controls” and the “Peak subG1 percent over 48 h” value ([6]; 10 μM) was 3.5%. For the same compound, the “Peak subG1 percent over 48 h” value ([6]; 25 μM) was 3.0%, the “Peak subG1 percent over 48 h” value ([7]; 10 μM) was 32.5% and the “Peak subG1 percent over 48 h” value ([7]; 25 μM) was 65.2%. For the same compound, the “maximum subG1 fraction relative to control” value ([7]; 25 μM) was 9.3 × control and the “mitotic arrest (in words)” value [8] was “did not cause any MA”.

With `COC1=CC(=O)C[C@@H](C)[C@]12Oc1c(Cl)c(OC)cc(OC)c1C2=O` [GF, griseofulvin] the “Peak subG1 percent over 48 h” value ([1]; 25 μM) was 59.5%, the “Peak subG1 percent over 48 h” value ([1]; 50 μM) was 79.0% and the “maximum subG1 fraction relative to control” value ([1]; 50 μM) was 4.3 × control. The “induction of MP over control levels” value [9] was “significantly induce MP over control levels”, the “Peak subG1 percent over 48 h” value ([2]; 25 μM) was 32.9% and the “Peak subG1 percent over 48 h” value ([2]; 50 μM) was 38.3%. The “peak interphase CA” value ([3]; interphase, 25 and 50 μM) was 13-16%, the “change of CA in mitotic cells (in words)” value ([3]; mitotic, 25 and 50 μM) was “no increase was observed in mitotic cells” and the “peak CA in interphase cells” value ([4]; interphase, 25 and 50 μM) was 14-15%. For the same compound, the “Peak subG1 percent over 48 h” value ([5]; 25 μM) was 33.7%, the “Peak subG1 percent over 48 h” value ([5]; 50 μM) was 39.5% and the “maximum subG1 fraction relative to control” value ([5]; 50 μM) was 16.3 × control. The “change of peak subG1 percent” value [6] was “did increase peak SubG1 in MCF10A cells compared to controls”, the “Peak subG1 percent over 48 h” value ([6]; 25 μM) was 22.7% and the “Peak subG1 percent over 48 h” value ([6]; 50 μM) was 35.1%. For the same compound, the “Peak subG1 percent over 48 h” value ([7]; 25 μM) was 62.0%, the “maximum subG1 fraction relative to control” value ([7]; 25 μM) was 6.4 × control and the “Peak subG1 percent over 48 h” value ([7]; 50 μM) was 60.0%.

`COc1ccc2c(c1OC)C(=O)O[C@@H]2[C@H]1c2c(cc3c(c2OC)OCO3)CCN1C` [Nos, noscapine] was tested, and the “induction of significant CA” value [10] was “failed to induce significant CA”, the “Peak subG1 percent over 48 h” value ([1]; 10 μM) was 25.0% and the “Peak subG1 percent over 48 h” value ([1]; 25 μM) was 50.1%. For the same compound, the “Peak subG1 percent over 48 h” value ([2]; 10 μM) was 14.8%, the “Peak subG1 percent over 48 h” value ([2]; 25 μM) was 11.2% and the “change of CA over control levels (in words)” value [3] was “neither concentrations of Nos or BN significantly increased CA over control levels”. For the same compound, the “change of CA over controls (in words)” value [4] was “did not significantly increase the extent of CA over controls”, the “Peak subG1 percent over 48 h” value ([5]; 10 μM) was 29.9% and the “Peak subG1 percent over 48 h” value ([5]; 25 μM) was 32.7%. For the same compound, the “change of peak subG1 percent” value [6] was “did not cause a significant increase in peak subG1 percent compared to controls”, the “Peak subG1 percent over 48 h” value ([6]; 10 μM) was 4.1% and the “Peak subG1 percent over 48 h” value ([6]; 25 μM) was 4.2%. For the same compound, the “Peak subG1 percent over 48 h” value ([7]; 10 μM) was 26.3% and the “Peak subG1 percent over 48 h” value ([7]; 25 μM) was 43.9%.

In the case of `CN(C)CC(=O)Nc1ccc2[nH]c(=O)c3ccccc3c2c1` [PJ, PJ-34], the “Peak subG1 percent over 48 h” value ([1]; 10 μM) is reported as 48.5%, the “maximum subG1 fraction relative to control” value ([1]; 10 μM) is reported as 4.8 × control and the “Peak subG1 percent over 48 h” value ([1]; 25 μM) is reported as 64.4%. For the same compound, the “induction of MP over control levels” value [9] was “significantly induce MP over control levels”, the “mean time to peak MA (MA:TRH)” value [11] was about 12 h and the “fold increase in peak CA extent, interphase cells” value [12] was about 20 fold. For the same compound, the “peak / final extent of CA in interphase cells” value [12] was under 20%, the “Peak subG1 percent over 48 h” value ([2]; 10 μM) was 13.6% and the “Peak subG1 percent over 48 h” value ([2]; 25 μM) was 28.2%. For the same compound, the “change of CA over control levels (in words)” value [3] was “increased the peak extent of CA in interphase and mitotic cells”, the “peak extent of CA in interphase cells” value ([3]; interphase, 10 μM) was 8% and the “change of CA over controls (in words)” value [4] was “no significant impact on CA in HDFs”. For the same compound, the “Peak subG1 percent over 48 h” value ([5]; 10 μM) was 62.4%, the “Peak subG1 percent over 48 h” value ([5]; 25 μM) was 48.4% and the “maximum subG1 fraction relative to control” value ([5]; 25 μM) was 7.9 × control. For the same compound, the “change of peak subG1 percent” value [6] was “did not cause a significant increase in peak subG1 percent compared to controls”, the “Peak subG1 percent over 48 h” value ([6]; 10 μM) was 6.9% and the “Peak subG1 percent over 48 h” value ([6]; 25 μM) was 9.1%. The “Peak subG1 percent over 48 h” value ([7]; 10 μM) was 37.0%, the “Peak subG1 percent over 48 h” value ([7]; 25 μM) was 55.0% and the “maximum subG1 fraction relative to control” value ([7]; 25 μM) was 10.4 × control.

Reference: patent publication US20150309031A2, “COMPOSITIONS AND METHODS FOR PROGNOSIS AND TREATMENT OF CANCER” (NOVAZOI THERANOSTICS, priority 2013, published 2015)
